pIC50: −log10 of the molar value. Values joined by “and” are separate entries in the source; they are usually repeats but may differ in a detail not shown here. Equal entries are not always repeated. Where two headings read alike, the source gives them in different places.

Holding throughout (format): cell-based, human
For experiment [1], the system named is NP1 adult brain neural progenitor cells. The experiment is described as follows: Chemosensitivity, 96 h continuous exposure, MTT assay. The essentials: (§1)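 Cells were seeded overnight at 37 °C (2 × 10^3/well; GBM1 at 3 × 10^3/well on poly-L-ornithine/laminin in Neurobasal with hFGF/rhEGF), then exposed to compound concentration ranges for 96 h. Viability was read by MTT (4 h, formazan in DMSO, A540) and IC50 taken from dose–response curves.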
(Tetrazolium assays rely on reduction of a dye to a coloured formazan, in cell work by metabolically active cells.)

Experiment [2] deals with GBM1 glioblastoma cancer stem cell model. The description is as above. The note with it: for pIC50: GBM1, 96 h, MTT; for Selectivity Index using the NPI non-cancer cell line: IC50 NP1 / IC50 GBM1; for SI (ARPE19): mean IC50 ARPE-19 / mean IC50 GBM1; for SI (MCF10A): mean IC50 MCF10A / mean IC50 GBM1; for SI (NPI): mean IC50 NP1 / mean IC50 GBM1. The procedure, abridged:
as §1

The subject of the next experiment is ARPE-19. The experiment is described as follows: Immunoblotting of whole cell protein lysates. The note with it: for levels of p53: ARPE19, 5 µM, 40 h. How it is done: (§2) ARPE-19 and HCT116 p53^+/+ cells were seeded at a density of 3 × 10^5 (ARPE-19) or 5 × 10^5 (HCT116 p53^+/+) in T25 flasks. 24 h after seeding, cells were treated with 10 µM of [L2Cu3]^6+, [L2Zn3]^6+, or vehicle control for 4 h (Fig. 8b) or 5 μM of [L2Cu3]^6+, [L2Zn3]^6+, or vehicle control for 40 h (Fig. 10). Cells were then harvested and lysed in RIPA buffer (Sigma) with the protein concentration of lysates determined by the BCA assay.
(§3) Protein lysates and recombinant proteins were resolved on 15% SDS polyacrylamide gels. Proteins were electroblotted onto nitrocellulose membrane by wet transfer in 1xTris Glycine buffer (Biorad) at 35 mA overnight at room temperature. After blocking of membranes, these were incubated with primary antibody overnight at 4 °C before addition of rabbit or mouse secondary antibody (HRP-conjugated; 1:5000, Dako P0448 or P0260) for 1 h at room temperature and development of blots by enhanced chemiluminescence. Primary antibodies were: anti-Src (total) (Cell Signalling Technology #2123 1:1000), anti-phosphorylated Src (Y527) (Cell Signalling Technology #21055 1:1000), anti-phosphorylated Src (Y416) (Cell Signalling Technology #69435 1:1000), anti-AMPKα (total) (Cell Signalling Technology #2532 1:1000), anti-phosphorylated AMPKα (T172) (Cell Signalling Technology #2535 1:1000), anti-AMPKβ1 (total) (Cell Signalling Technology #4150 1:1000), anti-phosphorylated AMPKβ1 (S108) (abcam ab156890 1:500), anti-phospho-Tyr (pan) (Cell Signalling Technology #8954 1:2000), anti-p53 (Santa Cruz, DO-1 clone, 1:1000,), anti-phosphorylated LDH-A (Y10) (Cell Signalling Technology #8176 1:1000), anti-LDH-A/B (total) (abcam ab134187 1:5000), anti-β-actin (Merck MAB1501, 1:40,000). Quantification of signals was performed by densitometry using Image J software. Uncropped and unprocessed scans are provided in the Source Data file.
Background: In western blotting, separated proteins are transferred to a membrane and probed.

The subject of the next experiment is HCT116 p53+/+. The experiment is described as follows: Immunoblotting of whole cell protein lysates. Here is the method: as §2, §3
[3] abbreviates: NP1, 96 h, MTT, individual run, read-out: IC50 values for each replicate.
Setting [4] is: NP1, 96 h, MTT, mean of at least 3 independent experiments, read-out: Mean IC50.
[5] abbreviates: NP1 non-cancer, read-out: Mean IC50 values.
[6] abbreviates: individual run, read-out: IC50 values for each replicate.
Where [7] appears, read: mean of at least 3 independent experiments, read-out: Mean IC50.
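Throughout, for SI (NPI): adult human brain neural progenitor non-cancer cells from an epilepsy surgery patient.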
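Throughout, for Selectivity Index using the NPI non-cancer cell line: adult human brain neural progenitor non-cancer cells from an epilepsy surgery patient.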

Broadly, the pIC50 is −log10 of the IC50, conventionally taken in molar units. In the case of `[Cu+2].[Cu+2].[Cu+2].c1ccc(-c2csc(NCCN(CCNc3nc(-c4ccccn4)cs3)CCNc3nc(-c4ccccn4)cs3)n2)nc1.c1ccc(-c2csc(NCCN(CCNc3nc(-c4ccccn4)cs3)CCNc3nc(-c4ccccn4)cs3)n2)nc1` [[L2Cu3]6+], the negative-log IC50 (pIC50) is 4.41 and 4.35 in experiment [1] (setting [3]); 4.37 in experiment [1] (setting [4]); 4.37 in experiment [1] (setting [5]); 5.27 and 5.35 and 5.29 in experiment [2] (setting [6]); less than 6.00 in experiment [2] (mean of at least 3 independent experiments, listed as [L2Cu3]^6+, read-out: Mean IC50); 5.30 in experiment [2] (setting [7]). Moreover, the “Selectivity Index using the NPI non-cancer cell line” value in experiment [2] came to 8.67. In experiment [2], the “SI (ARPE19)” value was found to be 10.59. Also, in experiment [2], the “SI (MCF10A)” value stood at 9.71. For the same molecule, in experiment [2], the “SI (NPI)” value came out at 8.67. The “levels of p53” value with ARPE-19 is “decreased”. In addition, the “increase of p53 levels” value with HCT116 p53+/+ (HCT116, 5 µM, 40 h) is ~ 1.7 fold.
`CC(=O)[O-].CC(=O)[O-].CC(=O)[O-].CC(=O)[O-].CC(=O)[O-].CC(=O)[O-].[Zn+2].[Zn+2].[Zn+2].c1ccc(-c2csc(NCCN(CCNc3nc(-c4ccccn4)cs3)CCNc3nc(-c4ccccn4)cs3)n2)nc1.c1ccc(-c2csc(NCCN(CCNc3nc(-c4ccccn4)cs3)CCNc3nc(-c4ccccn4)cs3)n2)nc1` [[L2Zn3]6+]: the pIC50 was 5.24 and 5.05 in experiment [1] (setting [3]); 5.11 in experiment [1] (setting [4]); 5.11 in experiment [1] (setting [5]); 5.49 and 5.35 and 5.36 in experiment [2] (setting [6]); less than 6.00 in experiment [2] (mean of at least 3 independent experiments, listed as [L2Zn3]^6+, read-out: Mean IC50); 5.40 in experiment [2] (setting [7]). In addition, the “Selectivity Index using the NPI non-cancer cell line” value in experiment [2] is 1.95. Moreover, the “SI (ARPE19)” value in experiment [2] turned out to be 39.31. Further, the “SI (MCF10A)” value in experiment [2] turned out to be 40.41. Also, the “SI (NPI)” value in experiment [2] stood at 1.95. Further, the “levels of p53” value in the experiment with ARPE-19 is on record as “decreased”. In addition, the “p-Y10 LDH-A” value in the experiment with ARPE-19 (ARPE-19, 10µM, 4h, n=1) was “modestly decrease”. In the experiment on HCT116 p53+/+ (HCT116, 5 µM, 40 h), the “cellular levels of T172P of AMPKα relative to total AMPKα” value is listed as “increased”. In addition, the “increase of p53 levels” value in the experiment with HCT116 p53+/+ (HCT116, 5 µM, 40 h) is listed as ~ 2.7 fold. Moreover, the “decrease in total levels of Tyr-phosphorylated proteins” value in the experiment on HCT116 p53+/+ (HCT116, 5 µM, 40 h, pan phospho-tyrosine antibody) is recorded as ~ 10%. The “cellular phospho-Thr172 AMPKα levels” value in the experiment on HCT116 p53+/+ (HCT116 cancer cells, 10 µM, 4 h) was “decreased”.

Source of the values: publication PMC8222254, “Self-assembly of an anion receptor with metal-dependent kinase inhibition and potent in vitro anti-cancer properties” (Nature Communications, 2021).
